Read-outs that look alike come from different tables or passages of the source.
Assay: Human pharmacokinetics, dose-ranging study
Type: in vivo
Settings: for AUC(0-t) / Cmax / half-life / Tmax: human, plasma, po, oral capsule, fasted; for Cmax: read-out: Cmax; for half-life: read-out: T1/2 (converted); for Tmax: read-out: Tmax
Protocol: In a dose-ranging study, the pharmacokinetics (PK), safety and tolerability of RX-5902 at various oral doses were evaluated. Subjects with advanced or metastatic solid tumors were administered capsules containing RX-5902 at daily doses of 25-775 mg once weekly, 250-300 mg three times a week, 150-300 mg five times a week, or 300-350 mg seven times a week of RX-5902 for up to 6 dosing cycles. Each cycle consisting of 1-5 doses of RX-5902 per week for 3 weeks followed by 1 week of rest, or 5-7 doses of RX-5902 per week for 4 weeks without any rest per 4-week cycle. All but one subject had fasted from food for at least 8 hours before administration. One subject received 300 mg RX-5902 in fed state. Plasma concentrations were measured on Days 1 and 15, for 48 hrs, using a validated LC-MS/MS assay, and noncompartmental pharmacokinetic parameters were calculated using Phoenix WinNonlin, Version 6.4.
Preliminary PK data after a single administration is presented in FIG. 1 (for Subjects #1-11) and Table 3.

[1] = 25 mg, 25 mg, 1 per week, Day 1
[2] = 50 mg, 50 mg, 1 per week, Day 1
[3] = 100 mg, 100 mg, 1 per week, Day 1
[4] = 150 mg, 150 mg, 1 per week, Day 1
[5] = 150 mg, 150 mg, 5 per week, Day 1
[6] = 150 mg, 150 mg, 5 per week, Day 15
[7] = 200 mg, 200 mg, 5 per week, Day 1
[8] = 200 mg, 200 mg, 5 per week, Day 15
[9] = 225 mg, 225 mg, 1 per week, Day 1
[10] = 250 mg, 250 mg, 3 per week, Day 1
[11] = 250 mg, 250 mg, 3 per week, Day 15
[12] = 300 mg, 300 mg, 1 per week, Day 1

COc1cc(OC)cc(N2CCN(C(=O)Nc3nc4cc(F)ccc4nc3OC)CC2)c1 [RX-5902, 4-(3,5-dimethoxyphenyl)-N-(7-fluoro-3-methoxyquinoxalin-2-yl)piperazine-1-carboxamide]
exposure in fed state compared to fasted state (300 mg oral, one fed subject): significantly higher exposure | AUC(0-t) (25 mg, 25 mg, 1 per week, Day 1, read-out: AUC0-24): 830 ng·h/mL | AUC(0-t) (25 mg, 25 mg, 1 per week, Day 1, read-out: AUC0-48): 894 ng·h/mL | Cmax [1]: 99.1 ng/mL | half-life [1]: 5.8 h | Tmax [1]: 6 h | AUC(0-t) (50 mg, 50 mg, 1 per week, Day 1, read-out: AUC0-24): 1030 ng·h/mL | AUC(0-t) (50 mg, 50 mg, 1 per week, Day 1, read-out: AUC0-48): 1310 ng·h/mL | Cmax [2]: 109 ng/mL | half-life [2]: 13.2 h | Tmax [2]: 1.5 h | AUC(0-t) (100 mg, 100 mg, 1 per week, Day 1, read-out: AUC0-24): 1780 ng·h/mL | AUC(0-t) (100 mg, 100 mg, 1 per week, Day 1, read-out: AUC0-48): 2340 ng·h/mL | Cmax [3]: 252 ng/mL | half-life [3]: 27.6 h | Tmax [3]: 2 h | AUC(0-t) (150 mg, 150 mg, 1 per week, Day 1, read-out: AUC0-24): 2690 ng·h/mL | AUC(0-t) (150 mg, 150 mg, 1 per week, Day 1, read-out: AUC0-48): 3280 ng·h/mL | Cmax [4]: 226 ng/mL | half-life [4]: 11.5 h | Tmax [4]: 6 h | AUC(0-t) (150 mg, 150 mg, 5 per week, Day 1, read-out: AUC0-24): 2150 ng·h/mL | Cmax [5]: 227 ng/mL | Tmax [5]: 2 h | AUC(0-t) (150 mg, 150 mg, 5 per week, Day 15, read-out: AUC0-24): 3720 ng·h/mL | Cmax [6]: 347 ng/mL | Tmax [6]: 1 h | AUC(0-t) (200 mg, 200 mg, 5 per week, Day 1, read-out: AUC0-24): 2750 ng·h/mL | Cmax [7]: 337 ng/mL | half-life [7]: 8.5 h | Tmax [7]: 4 h | AUC(0-t) (200 mg, 200 mg, 5 per week, Day 15, read-out: AUC0-24): 4030 ng·h/mL | Cmax [8]: 440 ng/mL | Tmax [8]: 2 h | AUC(0-t) (225 mg, 225 mg, 1 per week, Day 1, read-out: AUC0-24): 3420 ng·h/mL | AUC(0-t) (225 mg, 225 mg, 1 per week, Day 1, read-out: AUC0-48): 4310 ng·h/mL | Cmax [9]: 364 ng/mL | half-life [9]: 12 h | Tmax [9]: 4 h | AUC(0-t) (250 mg, 250 mg, 3 per week, Day 1, read-out: AUC0-24): 3980 ng·h/mL | AUC(0-t) (250 mg, 250 mg, 3 per week, Day 1, read-out: AUC0-48): 5210 ng·h/mL | Cmax [10]: 394 ng/mL | half-life [10]: 14 h | Tmax [10]: 2 h | AUC(0-t) (250 mg, 250 mg, 3 per week, Day 15, read-out: AUC0-24): 4810 ng·h/mL | AUC(0-t) (250 mg, 250 mg, 3 per week, Day 15, read-out: AUC0-48): 7770 ng·h/mL | Cmax [11]: 403 ng/mL | Tmax [11]: 2 h | AUC(0-t) (300 mg, 300 mg, 1 per week, Day 1, read-out: AUC0-24): 4680 ng·h/mL | AUC(0-t) (300 mg, 300 mg, 1 per week, Day 1, read-out: AUC0-48): 6140 ng·h/mL | Cmax [12]: 318 ng/mL | half-life [12]: 14.6 h

Reference: patent US9969698B2, “Quinoxalinyl-piperazinamide methods of use” (REXAHN PHARMACEUTICALS, INC., priority 2015, dated 2018)
